Key:
[1] = Neuroprotective effect against amyloid beta(25 to 35)-induced cell death in Harlan Sprague-Dawley rat pups cortical neurons assessed as cell viability at 1 uM treated 2 hrs before amyloid beta(25 to 35) treatment after 40 hrs by MTT assay; type: functional, Cortical neurone; conditions: for viability at 1 µM: Rattus norvegicus, Harlan Sprague-Dawley, Cortical neurone, read-out: Activity
[2] = Neuroprotective effect against amyloid beta(25 to 35)-induced cell death in Harlan Sprague-Dawley rat pups cortical neurons assessed as cell viability at 10 uM treated 2 hrs before amyloid beta(25 to 35) treatment after 40 hrs by MTT assay; type: functional; conditions: Cortical neurone, read-out: Activity
[3] = Neuroprotective effect against amyloid beta(25 to 35)-induced cell death in Harlan Sprague-Dawley rat pups cortical neurons assessed as cell viability at 5 uM treated 2 hrs before amyloid beta(25 to 35) treatment after 40 hrs by MTT assay; type: functional, Cortical neurone; conditions: for viability at 5 µM: Rattus norvegicus, Harlan Sprague-Dawley, Cortical neurone, read-out: Activity

C=C1CC[C@H]2[C@@](C)(CO)CCC[C@]2(C)[C@H]1CCC1CCOC1=O (some centres not stated) showed a viability at 1 µM [1] of 34.4%, a viability at 10 µM [2] of 28.1% and a viability at 5 µM [3] of 25.3%.

C=C1CC[C@@H]2[C@](C)(CC[C@H](O)[C@]2(C)CO)[C@H]1/C=C/C1CCOC1=O (stereo in doubt; 3) showed a viability at 1 µM [1] of 45.1%, a viability at 10 µM [2] of 36.7% and a viability at 5 µM [3] of 39.6%.

Work on C=C1CC[C@@H]2[C@](C)(CC[C@H](O)[C@]2(C)CO)[C@H]1/C=C/C1CCOC1=O (stereo in doubt; 2) yielded an Activity [1] of 43.8% and an Activity [3] of 34.9%.

For CC(=O)N[C@@H](CC(=O)O)C(=O)N[C@@H](CCC(=O)O)C(=O)N[C@H](C(=O)N[C@H](C=O)CC(=O)O)C(C)C, the viability at 1 µM [1] was 35.8%, the viability at 10 µM [2] was 24.5% and the viability at 5 µM [3] was 30.2%.

With C=C1CC[C@@H]2[C@](C)(CO)[C@H](O)CC[C@@]2(C)[C@@H]1/C=C/C1=CCOC1=O the viability at 1 µM [1] was 40.7%, the viability at 10 µM [2] was 30.8% and the viability at 5 µM [3] was 35.7%.

Molecule C=C1CC[C@H]2[C@@](C)(CO)CCC[C@]2(C)[C@H]1CCC1=CCOC1=O has a viability at 1 µM [1] of 41.2%, a viability at 10 µM [2] of 28.9% and a viability at 5 µM [3] of 34.8%.

Reference: ChEMBL document CHEMBL1157334, “Neuroprotective diterpenes from the fruiting body of Antrodia camphorata” (2006)
